Laboratory results taken from publication PMC8145641 (Cells, 2021).
Values after ≈ are worked out from the molar mass of the structure shown. Read-outs that look alike come from different tables or passages of the source.

Experiments:
[1] = system: tachyzoites of the RH-GFP strain; test: Influence of compounds during Toxoplasma growth, Assay B (intracellular proliferation); type: cell-based, Toxoplasma gondii; settings: 3 h infection without compound, washed, 24 h with compound at IC50
Description: (§1) Influence of Compounds during Toxoplasma Growth (Assay A and B): Hs27 cells were cultured on Lab-Tek™ 4-well Chamber Slides (Nunc, Thermo Fisher Scientific, Waltham, MA, USA) (5 × 10^4 cells/500 μL per well).
Assay B—after 48 h, the medium was removed and then 5 × 10^5/500 µL/well tachyzoites of the RH-GFP strain were added to the cell monolayers, in parasite culture medium for 3 h.
(§2) In both assays as the controls, Hs27 cells were infected, but not treated. After subsequent 24 h of incubation (Assay A and B), the slides were washed with sterile PBS, fixed with formaldehyde solution (252549, Sigma-Aldrich), 3.7% in PBS for 20 min and stained with DAPI for 10 min (1 mg/mL, ThermoFisher Scientific). Microscopic analysis of 100 cells in turn, comprised of counting the infected cell ratio and tachyzoites per each parasitophorous vacuoles of infected cell, was performed using a fluorescent microscope (Axio Scope.A1, Carl Zeiss, Jena, Germany) at a magnification ×1000. For image processing ZEISS ZEN Microscope Software version 3.1 was used. Three independent experiments on triplicate chamber slides using the same conditions for both assays were performed.

[2] = system: tachyzoites of the RH-GFP strain; test: Influence of compounds during Toxoplasma growth, Assay A (invasion); type: cell-based, Toxoplasma gondii; settings: compound at IC50 present 3 h during infection, washed, 24 h free medium; vs non-treated
Description: as §1
Assay A—after 48 h, the medium was removed and then 5 × 10^5/500 µL/well tachyzoites of the RH-GFP strain were added to the cell monolayers, in parasite culture medium with the selected compounds at IC50 concentration: 2b, 5b, 8b, 11b or 12b, for 3 h. Then, the cells were washed to remove extracellular parasites and parasite culture medium (without any compounds) was added for 24 h.
as §2

T. gondii RH-GFP [3] = test: microbe, parasite or virus in culture; type: cell-based, Toxoplasma gondii
Description: Cell and parasite culture: The Hs27 (human foreskin fibroblast) (ATCC® CRL-1634™) (ATCC, Manassas, VA, USA) were culturing in DMEM (Dulbecco’s modified Eagle’s medium-ATCC® 30-2002™, ATCC) supplemented with 10% fetal bovine serum (fetal bovine serum, ATCC® 30-2020™, ATCC), 100 I.U./mL penicillin and 100 μg/mL streptomycin (penicillin-streptomycin solution ATCC® 30-2300™, ATCC). Cells were trypsinized (Trypsin-EDTA Solution ATCC® 30-2101™, ATCC) twice a week and seeded at a density of 1 × 10^6 per T25 cell culture flask and incubated in a 37 °C and 5% CO2 to achieve a confluent monolayer. The RH strain of Toxoplasma gondii (RH-GFP ATCC® 50940™, ATCC, highly virulent, haplogroup first, expression of green fluorescent protein) was maintained as tachyzoites, in parasite culture medium, which contains DMEM medium with 3% HIFBS (heat-inactivated FBS; 1 h in 56 °C). Infected tissue culture cells were incubated in a 37 °C and 5% CO2.
After 72 h of incubation, the medium was removed and then 1 × 10^5 per well of tachyzoites of the RH strain were added to the cell monolayers, in DMEM without phenol red with 3% HIFBS. One hour later, the compounds and drugs dilutions in the DMEM without phenol red medium were added to the Hs27 cells with T. gondii. Concentration of the compounds below cytotoxic concentration (<CC30), sulfadiazine 0–10,000 μM and trimethoprim, pyrimethamine and atovaquone 0–200 μM. After a subsequent 96 h of incubation, the plates were read with covered lids, and both excitation (475 nm) and emission (509 nm) from the bottom using multimode microplate reader SpectraMax® i3. The results were expressed as mean fluorescent intensity (MFI) and transformed to the percentage of viability compared to untreated cells. Finally, the inhibitory concentrations for 50% inhibition of T. gondii proliferation (IC50) were calculated. All experiments were performed in triplicate.
Graphs and statistical analyses: Statistical analyses and graphs were performed using GraphPad Prism version 9.0.0 for macOS (GraphPad Software, San Diego, CA, USA). […] Additionally, a relationship between cytotoxicity and antiparasitic activity were calculated as the ratio of the 30% cytotoxic concentration (CC30) to the 50% antiparasitic concentration (IC50) and presented as the selectivity index (SI).

[4] = system: Hs27 (human foreskin fibroblast); test: Cytotoxicity assay (MTT); type: cell-based; settings: 24 h treatment
T. gondii = settings: values from the earlier paper; ref [25]; cited from earlier work
T. gondii RH-GFP [5] = test: Kinetics of T. gondii growth, Assay 1 (intracellular tachyzoites); type: cell-based, Toxoplasma gondii; settings: Assay 1 and Assay 2, Figure 12
Description: Kinetics of T. gondii growth: The effect of 12b and drugs on kinetics of T. gondii RH-GFP growth was performed as follows: 1 × 10^4 per well of Hs27 cells were seeded on black, 96-well, tissue culture-treated plates with optical bottoms in DMEM cell culture medium.
Assay 1—After 72 h of incubation, the medium was removed and then 1 × 10^5 per well of tachyzoites of the RH strain were added to the cell monolayers, in DMEM without phenol red with 3% HIFBS. One hour later, the compound 12b and drugs dilutions in the DMEM without phenol red medium were added to the Hs27 cells with T. gondii.
The plates were read with covered lids, and both excitation (475 nm) and emission (509 nm) from the bottom using multimode microplate reader SpectraMax® i3. Additionally, fluorescence measurement was performed every 24 h. The plates were incubated at 37 °C with 5% of CO2. The results were expressed as mean fluorescent intensity (MFI). The initial value for 1 × 10^5 of T. gondii RH-GFP was 37,000 MFI (log 4.57). The lower limit of detection was 1000 MFI (log 3.0). Data presented as a logarithm of mean fluorescence intensity (logMFI) on concentration and time dependent curves. All experiments were performed in triplicate.

[6] = Toxoplasma gondii, HS27, 96 h; read-out: IC50 (50% inhibition of T. gondii proliferation)
[7] = ratio of CC30 (Hs27) to IC50 (T. gondii); 1b–12b and positive controls

Row | Compound | IC50 (T. gondii RH-GFP [3]; [6]) | SI (selectivity index, CC30/IC50) (T. gondii RH-GFP [3]; [7]) | CC30 (cytotoxic concentration causing 30% of cells proliferation inhibition) [4] | IC50 (50% inhibition of T. gondii proliferation) (T. gondii) | further results
1 | Cc1nc[nH]c1-c1nnc(Nc2cccc(Cl)c2)s1 [5b] | 3.65 µg/mL (≈ 12.5 µM) | 4.90 | 17.88 µg/mL |  | number of intravacuolar tachyzoites (Assay B) [1]: significant reduction; percentage of infected cells (Assay B) [1]: still the same; size of parasitophorous vacuole (Assay B) [1]: significant reduction; number of tachyzoites per vacuole (Assay A) [2]: significant reductions; percentage of infected cells (Assay A) [2]: significant reductions
2 | Cc1nc[nH]c1C(=O)NNC(=S)Nc1ccccc1F [1a] |  |  | 289.60 µg/mL | 68.83 µg/mL | 
3 | Cc1nc[nH]c1-c1nnc(Nc2ccccc2I)s1 [10b] | 11 µg/mL (≈ 28.8 µM) | 8.13 | 89.54 µg/mL |  | 
4 | Cc1nc[nH]c1-c1nnc(Nc2cccc(I)c2)s1 [11b] | 4.49 µg/mL (≈ 11.7 µM) | 8.13 | 36.48 µg/mL |  | number of intravacuolar tachyzoites (Assay B) [1]: significant reduction; percentage of infected cells (Assay B) [1]: still the same; size of parasitophorous vacuole (Assay B) [1]: significant reduction; number of tachyzoites per vacuole (Assay A) [2]: significant reductions; percentage of infected cells (Assay A) [2]: significant reductions
5 | Cc1nc[nH]c1C(=O)NNC(=S)Nc1cccc(Br)c1 [8a] |  |  | 96.12 µg/mL | 15.64 µg/mL | 
6 | Cc1nc[nH]c1-c1nnc(Nc2ccccc2Br)s1 [7b] | 8.77 µg/mL (≈ 26.1 µM) | 3.39 | 29.71 µg/mL |  | 
7 | CCc1nc(N)nc(N)c1-c1ccc(Cl)cc1 [Pyrimethamine (PYR), Pyrimethamine, reference compound] |  | 15.85 | 45.26 µg/mL |  | effect on the kinetics of T. gondii growth (T. gondii RH-GFP [5]): only moderately slow down the proliferation of tachyzoites; IC50 (T. gondii RH-GFP [3]; Toxoplasma gondii, HS27, 96 h, read-out: IC50 (50% inhibition of T. gondii proliferation)): 2.86 µg/mL (≈ 11.5 µM)
8 | Cc1nc[nH]c1-c1nnc(Nc2cccc(Br)c2)s1 [8b] | 3.83 µg/mL (≈ 11.4 µM) | 5.37 | 20.55 µg/mL |  | number of intravacuolar tachyzoites (Assay B) [1]: significant reduction; percentage of infected cells (Assay B) [1]: still the same; size of parasitophorous vacuole (Assay B) [1]: significant reduction; number of tachyzoites per vacuole (Assay A) [2]: significant reductions; percentage of infected cells (Assay A) [2]: significant reductions
9 | Cc1nc[nH]c1C(=O)NNC(=S)Nc1ccc(F)cc1 [3a] |  |  | 266.20 µg/mL | 110.31 µg/mL | 
10 | Cc1nc[nH]c1C(=O)NNC(=S)Nc1cccc(F)c1 [2a] |  |  | 125.17 µg/mL | 113.45 µg/mL | 
11 | Cc1nc[nH]c1-c1nnc(Nc2ccc(F)cc2)s1 [3b] | 11.4 µg/mL (≈ 41.5 µM) | 2.29 | 26.17 µg/mL |  | 
12 | Cc1nc[nH]c1C(=O)NNC(=S)Nc1cccc(Cl)c1 [5a] |  |  | 96.78 µg/mL | 24.15 µg/mL | 
13 | Cc1nc[nH]c1C(=O)NNC(=S)Nc1ccc(I)cc1 [12a] |  |  | 71.58 µg/mL | 22.01 µg/mL | 
14 | Cc1nc[nH]c1C(=O)NNC(=S)Nc1ccccc1Br [7a] |  |  | 205.31 µg/mL | 27.65 µg/mL | 
15 | O=C1C(O)=C([C@H]2CC[C@H](c3ccc(Cl)cc3)CC2)C(=O)c2ccccc21 [Atovaquone (ATO), Atovaquone, reference compound] | 0.24 µg/mL (≈ 0.654 µM) | 227.56 | 54.26 µg/mL |  | effect on the kinetics of T. gondii growth (T. gondii RH-GFP [5]): only moderately slow down the proliferation of tachyzoites
16 | Cc1nc[nH]c1-c1nnc(Nc2cccc(F)c2)s1 [2b] | 7.04 µg/mL (≈ 25.6 µM) | 2.69 | 18.96 µg/mL |  | number of intravacuolar tachyzoites (Assay B) [1]: significant reduction; percentage of infected cells (Assay B) [1]: still the same; size of parasitophorous vacuole (Assay B) [1]: significant reduction; number of tachyzoites per vacuole (Assay A) [2]: significant reductions; percentage of infected cells (Assay A) [2]: significant reductions
17 | Cc1nc[nH]c1-c1nnc(Nc2ccccc2Cl)s1 [4b] | 12.4 µg/mL (≈ 42.4 µM) | 2.00 | 24.69 µg/mL |  | 
18 | Cc1nc[nH]c1-c1nnc(Nc2ccccc2F)s1 [1b] | 26.2 µg/mL (≈ 95.1 µM) |  | 157.71 µg/mL |  | 
19 | Cc1nc[nH]c1C(=O)NNC(=S)Nc1cccc(I)c1 [11a] |  |  | 85.57 µg/mL | 10.30 µg/mL | 
20 | Cc1nc[nH]c1-c1nnc(Nc2ccc(Br)cc2)s1 [9b] | 5.41 µg/mL (≈ 16.1 µM) | 3.98 | 21.52 µg/mL |  | 
21 | Cc1nc[nH]c1C(=O)NNC(=S)Nc1ccccc1I [10a] |  |  | 101.58 µg/mL | 20.31 µg/mL | 
22 | Cc1nc[nH]c1-c1nnc(Nc2ccc(Cl)cc2)s1 [6b] | 8.36 µg/mL (≈ 28.7 µM) | 5.50 | 45.97 µg/mL |  | 
23 | Cc1nc[nH]c1C(=O)NNC(=S)Nc1ccccc1Cl [4a] |  |  | 143.15 µg/mL | 35.61 µg/mL | 
24 | Cc1nc[nH]c1C(=O)NNC(=S)Nc1ccc(Cl)cc1 [6a] |  |  | 94.12 µg/mL | 73.37 µg/mL | 
25 | Cc1nc[nH]c1C(=O)NNC(=S)Nc1ccc(Br)cc1 [9a] |  |  | 48.89 µg/mL | 14.57 µg/mL | 
